Source: US8183248B2, “Substituted pyrrolo[2,3-d]pyrimidines and compositions as protein kinase inhibitors” (IRM LLC, priority 2005, dated 2012)

Assays:
[1] = molecular target: T1, M351T Bcr-abl (Ba/F3 cells) (Homo sapiens, UniProt P00519, M351T); test: Proliferation of Ba/F3 cells expressing M351T Bcr-abl; format: cell-based
T1 construct: expressed in transfected cells; host or cells: Ba/F3 (murine pro-B cells); the other entry of the earlier key: BCR (P11274, Breakpoint cluster region protein)
Procedure: 32D-p210 cells are plated into 96 well TC plates at a density of 15,000 cells per well. 50 μL of two fold serial dilutions of the test compound (Cmax is 40 μM) are added to each well (STI571 is included as a positive control). After incubating the cells for 48 hours at 37° C., 5% CO2, 15 μL of MTT (Promega) is added to each well and the cells are incubated for an additional 5 hours. The optical density at 570 nm is quantified spectrophotometrically and IC50 values, the concentration of compound required for 50% inhibition, determined from a dose response curve.
Compounds of the invention are tested for their antiproliferative effect on Ba/F3 cells expressing either wild type or the mutant forms of BCR-Abl (G250E, E255V, T315I, F317L, M351T) that confers resistance or diminished sensitivity to STI571. The antiproliferative effect of these compounds on the mutant-BCR-Abl expressing cells and on the non transformed cells were tested at 10, 3.3, 1.1 and 0.37 μM as described above (in media lacking IL3). The IC50 values of the compounds lacking toxicity on the untransformed cells were determined from the dose response curves obtained as describe above.

FLT-3 = FLT-3 (Homo sapiens, UniProt P36888, cells depend on it, form not given); test: FLT3 (Cellular Assay), Ba/F3-FLT3-ITD proliferation; format: cell-based; conditions: read-out: IC50 for FLT-3
B-RAF = B-RAF (Homo sapiens, UniProt P15056); test: b-Raf Enzymatic Assay; format: biochemical
B-RAF, sequence (P15056 whole entry): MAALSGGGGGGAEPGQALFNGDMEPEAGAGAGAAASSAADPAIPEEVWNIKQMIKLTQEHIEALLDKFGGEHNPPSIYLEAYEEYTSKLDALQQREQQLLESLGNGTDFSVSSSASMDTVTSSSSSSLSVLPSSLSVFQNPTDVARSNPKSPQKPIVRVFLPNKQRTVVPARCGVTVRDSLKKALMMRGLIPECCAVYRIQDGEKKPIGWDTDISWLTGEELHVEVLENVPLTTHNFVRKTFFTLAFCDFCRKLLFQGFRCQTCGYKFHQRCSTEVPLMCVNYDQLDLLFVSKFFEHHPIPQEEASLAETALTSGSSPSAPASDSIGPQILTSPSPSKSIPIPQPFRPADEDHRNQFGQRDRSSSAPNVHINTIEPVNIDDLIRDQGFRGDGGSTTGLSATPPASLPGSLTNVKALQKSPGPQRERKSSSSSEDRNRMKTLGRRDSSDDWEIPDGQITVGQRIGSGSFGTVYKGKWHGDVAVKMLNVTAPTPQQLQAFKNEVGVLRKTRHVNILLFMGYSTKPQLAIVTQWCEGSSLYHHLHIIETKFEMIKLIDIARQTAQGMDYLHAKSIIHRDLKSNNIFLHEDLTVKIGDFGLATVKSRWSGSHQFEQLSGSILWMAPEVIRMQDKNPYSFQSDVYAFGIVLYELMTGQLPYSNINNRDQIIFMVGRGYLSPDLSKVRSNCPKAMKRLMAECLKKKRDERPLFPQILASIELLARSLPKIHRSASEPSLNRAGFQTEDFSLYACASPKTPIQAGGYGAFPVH
Procedure: Compounds of the invention are tested for their ability to inhibit the activity of b-Raf. The assay is carried out in 384-well MaxiSorp plates (NUNC) with black walls and clear bottom. The substrate, IκBα is diluted in DPBS (1:750) and 15 μl is added to each well. The plates are incubated at 4° C. overnight and washed 3 times with TBST (25 mM Tris, pH 8.0, 150 mM NaCl and 0.05% Tween-20) using the EMBLA plate washer. Plates are blocked by Superblock (15 μl/well) for 3 hours at room temperature, washed 3 times with TBST and pat-dried. Assay buffer containing 20 μM ATP (10 μl) is added to each well followed by 100 nl or 500 nl of compound. B-Raf is diluted in the assay buffer (1 μl into 25 μl) and 10 μl of diluted b-Raf is added to each well (0.4 μg/well). The plates are incubated at room temperature for 2.5 hours. The kinase reaction is stopped by washing the plates 6 times with TBST. Phosph-IκBα (Ser32/36) antibody is diluted in Superblock (1:10,000) and 15 μl is added to each well. The plates are incubated at 4° C. overnight and washed 6 times with TBST. AP-conjugated goat-anti-mouse IgG is diluted in Superblock (1:1,500) and 15 μl is added to each well. Plates are incubated at room temperature for 1 hour and washed 6 times with TBST. […] Plates are read on Acquest or Analyst GT using a Fluorescence Intensity Program (Excitation 455 nm, Emission 580 nm).

IC50 [1]: < 5 nM
GI50 (FLT-3): 15 nM
IC50 (B-RAF): 100 nM
SMILES: CCN1CCN(Cc2ccc(NC(=O)c3ccc(C)c(NC(=O)N(C)c4ncnc5[nH]ccc45)c3)cc2C(F)(F)F)CC1 [Example 4, N-[4-(4-Ethyl-piperazin-1-ylmethyl)-3-trifluoromethyl-phenyl]-4-methyl-3-[3-methyl-3-(7H-pyrrolo[2,3-d]pyrimidin-4-yl)-ureido]-benzamide]
